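Test compounds were applied to cells in 96-well plates for 48 hours at 5 doses. GI50 marks 50% less growth.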 Activity calls are given as the source filed them. Rule as the data show it: active = GI50 up to about 1.1 µM and inactive = higher.
Columns and labels:
Test in all cases: inhibition of tumour cell growth, NCI panel, 48 h
[1] = tested on: DU-145
[2] = tested on: CAKI-1
[3] = tested on: OVCAR-5
[4] = tested on: IGROV-1
[5] = tested on: NCI-H226
[6] = tested on: HCC 2998
[7] = tested on: NCI-H522
[8] = tested on: RPMI-8226
[9] = tested on: NCI-H460
[10] = tested on: SK-MEL-28
[11] = tested on: SK-MEL-2
[12] = tested on: SR
[13] = tested on: M14
[14] = tested on: EKVX
[15] = tested on: SK-OV-3
[16] = tested on: OVCAR-3
[17] = tested on: UACC-62
[18] = tested on: HCT-15
[19] = tested on: SNB-75
[20] = tested on: A498

SMILES | GI50 [1] | GI50 [2] | GI50 [3] | GI50 [4] | GI50 [5] | GI50 [6] | GI50 [7] | GI50 [8] | GI50 [9] | GI50 [10] | GI50 [11] | GI50 [12] | GI50 [13] | GI50 [14] | GI50 [15] | GI50 [16] | GI50 [17] | GI50 [18] | GI50 [19] | GI50 [20]
Nc1c2ccccc2nc2ccc3c(=O)cc(-c4ccccc4)oc3c12 | 1.75 µM (inactive) | 1.33 µM (inactive) | 1.5 µM (inactive) | 1.12 µM (inactive) | 1.31 µM (inactive) | 0.492 µM (active) | 1.25 µM (inactive) | 0.473 µM (active) | 0.646 µM (active) | 1.55 µM (inactive) | 1.96 µM (inactive) | 0.393 µM (active) | 1.21 µM (inactive) | 1.34 µM (inactive) | 1.83 µM (inactive) | 1.42 µM (inactive) | 1.6 µM (inactive) | 1.02 µM | 1.76 µM (inactive) | 
COc1ccc(/C(=N/O)c2ccccc2C2=Nc3ccccc3C(NCc3ccccc3)O2)cc1C (stereo not given) | 69.8 µM (inactive) | 56.2 µM (inactive) | 33.8 µM (inactive) | 40.5 µM (inactive) | 37 µM (inactive) | 20.9 µM (inactive) | 34 µM (inactive) | 26.2 µM (inactive) | 29.9 µM (inactive) | 44.1 µM (inactive) | 32.7 µM (inactive) | 32.6 µM (inactive) | 39.4 µM (inactive) | 74.5 µM (inactive) | 21.2 µM (inactive) | 45.7 µM (inactive) | 23.9 µM (inactive) | 30.3 µM | 24.9 µM (inactive) | 
COC1CC(OC2C(C)OC(OC3C(C)OC(OC4C(C)OC(O[C@H]5CC[C@@]6(C)C(=CC[C@]7(O)[C@@H]6C[C@@H](O)[C@@]6(C)[C@]7(O)CC[C@@]6(O)C(C)=O)C5)CC4OC)CC3OC)CC2OC)OC(C)C1O (stereo not given in full) | > 12.5 µM (inactive) | > 12.5 µM (inactive) | > 12.5 µM (inactive) | > 12.5 µM (inactive) | > 12.5 µM (inactive) | > 12.5 µM (inactive) | > 12.5 µM (inactive) | > 12.5 µM (inactive) |  | > 12.5 µM (inactive) | > 12.5 µM (inactive) | > 12.5 µM (inactive) | > 12.5 µM (inactive) | > 12.5 µM (inactive) | > 12.5 µM (inactive) | > 12.5 µM (inactive) | > 12.5 µM (inactive) | > 12.5 µM | > 12.5 µM (inactive) | 
Cc1ccn2c(=O)cc(CN3CCOCC3)nc2c1 | > 100 µM (inactive) | > 100 µM (inactive) | > 100 µM (inactive) | > 100 µM (inactive) | > 100 µM (inactive) | > 100 µM (inactive) | > 100 µM (inactive) | > 100 µM (inactive) | > 100 µM (inactive) | > 100 µM (inactive) | > 100 µM (inactive) | > 100 µM (inactive) | > 100 µM (inactive) | > 100 µM (inactive) | > 100 µM (inactive) | > 100 µM (inactive) | 58.1 µM (inactive) | > 100 µM | > 100 µM (inactive) | 
CCOC(=O)CC1C(C(=O)OCC)=Cn2c([nH]c3cccc4cccc2c43)=C1C(=O)OCC (stereo not given) | > 100 µM (inactive) | > 100 µM (inactive) | > 100 µM (inactive) | > 100 µM (inactive) | > 100 µM (inactive) | > 100 µM (inactive) |  | > 100 µM (inactive) | > 100 µM (inactive) | > 100 µM (inactive) | > 100 µM (inactive) | > 100 µM (inactive) | > 100 µM (inactive) | > 100 µM (inactive) | > 100 µM (inactive) | > 100 µM (inactive) | > 100 µM (inactive) | > 100 µM | > 100 µM (inactive) | > 100 µM (inactive)
CC1=NN(c2cccc(Cl)c2)C2(C1=C/C=C/c1ccccc1)C(Cl)C(=O)N2c1nc2ccccc2s1 (stereo not given) | 9.33 µM (inactive) | 9.4 µM (inactive) | 34.1 µM (inactive) | 27.5 µM (inactive) | 27.4 µM (inactive) | 25.1 µM (inactive) | 14.8 µM (inactive) | 4.43 µM (inactive) | 5.42 µM (inactive) | 26.2 µM (inactive) | 18.7 µM (inactive) | 1.51 µM (inactive) | 23 µM (inactive) | 40.2 µM (inactive) | 29 µM (inactive) | 24.7 µM (inactive) | 31.5 µM (inactive) | 29.6 µM |  | 30.2 µM (inactive)
Clc1ccc(COC(Cn2ccnc2)c2ccc(Cl)cc2Cl)cc1 (stereo not given) [ECONAZOLE NITRATE] | 14.4 µM (inactive) | 7.31 µM (inactive) | 14.5 µM (inactive) | 12.2 µM (inactive) |  | 15.6 µM (inactive) | 8.24 µM (inactive) | 4.22 µM (inactive) | 10.7 µM (inactive) | 14.8 µM (inactive) | 15 µM (inactive) | 3.49 µM (inactive) | 13 µM (inactive) | 12.1 µM (inactive) | 19.7 µM (inactive) | 11.5 µM (inactive) | 9.86 µM (inactive) | 12.8 µM | 15.6 µM (inactive) | 11.6 µM (inactive)
Cc1nc2c(sc(=S)n2-c2ccccc2)c2nc3ncccc3n12 | > 100 µM (inactive) | > 100 µM (inactive) | > 100 µM (inactive) | > 100 µM (inactive) |  | > 100 µM (inactive) | > 100 µM (inactive) | > 100 µM (inactive) | > 100 µM (inactive) | > 100 µM (inactive) | 65.8 µM (inactive) | > 100 µM (inactive) | > 100 µM (inactive) | > 100 µM (inactive) | 33 µM (inactive) | > 100 µM (inactive) | > 100 µM (inactive) | > 100 µM | 23.6 µM (inactive) | > 100 µM (inactive)
O=c1sc2c(s1)SSSSS2 | > 50 µM (inactive) | > 50 µM (inactive) | > 50 µM (inactive) | > 50 µM (inactive) | > 50 µM (inactive) | > 50 µM (inactive) | 34.2 µM (inactive) | > 50 µM (inactive) | 21.4 µM (inactive) | > 50 µM (inactive) | > 50 µM (inactive) | > 50 µM (inactive) | > 50 µM (inactive) | > 50 µM (inactive) | > 50 µM (inactive) | 41.9 µM (inactive) | 35.2 µM (inactive) | > 50 µM |  | > 50 µM (inactive)
O=C(CNc1ccc(Cl)cc1Cl)Nn1c(-c2ccccc2)nc2ccccc2c1=O | 14.5 µM (inactive) |  | 23 µM (inactive) | 15.2 µM (inactive) | 33.8 µM (inactive) | 17.7 µM (inactive) | 12 µM (inactive) | 21.3 µM (inactive) | 15.7 µM (inactive) | 21.1 µM (inactive) |  | 13.9 µM (inactive) | 13.7 µM (inactive) | 19.2 µM (inactive) | 28.2 µM (inactive) | 17 µM (inactive) | 3.34 µM (inactive) | 19.1 µM | 15.3 µM (inactive) | > 10 µM (inactive)
COc1cc(C2S/C(=C/c3ccccc3)C(=O)N2c2ccc(Cl)c(Cl)c2)cc(OC)c1OC (stereo not given) | 38.7 µM (inactive) | > 70.8 µM (inactive) | 10.1 µM (inactive) | 22.5 µM (inactive) | 29.4 µM (inactive) | 58.9 µM (inactive) | 14.1 µM (inactive) | 46.3 µM (inactive) | 30.7 µM (inactive) | 17.1 µM (inactive) | 12.6 µM (inactive) | 26 µM (inactive) | 28.8 µM (inactive) | 23.1 µM (inactive) | > 91 µM (inactive) | > 57.1 µM (inactive) | 0.78 µM (active) | 18.7 µM |  | > 42.4 µM (inactive)
COC(=O)CSSCc1ccc([N+](=O)[O-])cc1 | 19.5 µM (inactive) | 2.23 µM (inactive) | 19.4 µM (inactive) | 3.08 µM (inactive) |  | 21.4 µM (inactive) | 13.4 µM (inactive) | 18 µM (inactive) | 33.7 µM (inactive) | 18 µM (inactive) | 18.1 µM (inactive) | 12 µM (inactive) | 19.8 µM (inactive) | 28.2 µM (inactive) | 20.8 µM (inactive) | 18.5 µM (inactive) | 15.8 µM (inactive) | 16.7 µM | 20 µM (inactive) | 21.6 µM (inactive)
COc1c(-c2ccc(F)cc2)oc2c(CC(=O)O)cccc2c1=O | > 100 µM (inactive) | 22.3 µM (inactive) | > 100 µM (inactive) | > 100 µM (inactive) | > 100 µM (inactive) | > 100 µM (inactive) | > 100 µM (inactive) |  |  |  | > 100 µM (inactive) | > 100 µM (inactive) | > 100 µM (inactive) | > 100 µM (inactive) | > 100 µM (inactive) | > 100 µM (inactive) | > 100 µM (inactive) |  |  | > 100 µM (inactive)
O=S1(=O)OCCOS(=O)(=O)C1F | > 100 µM (inactive) | > 100 µM (inactive) | > 100 µM (inactive) |  | > 100 µM (inactive) | > 100 µM (inactive) | > 100 µM (inactive) | > 100 µM (inactive) |  | > 100 µM (inactive) | > 100 µM (inactive) | > 100 µM (inactive) | > 100 µM (inactive) | > 100 µM (inactive) | > 100 µM (inactive) | > 100 µM (inactive) | > 100 µM (inactive) | > 100 µM | > 100 µM (inactive) | 
COC(=O)NC1C(C)OC(OC2C/C=C(/C)C3C=CC4C(OC5CC(OC6CC(OC7CC(O)C(O)C(C)O7)C(OC7CC(O)C(OC)C(C)O7)C(C)O6)C(O)C(C)O5)C(C)CC(C)C4C3(C)C(=O)C3=C(O)C4(CC(C)C(CO)=CC4/C=C\2C)OC3=O)CC1(C)[N+](=O)[O-] (stereo not given) | 6.73 µM (inactive) | 16 µM (inactive) | 16.9 µM (inactive) | 10.4 µM (inactive) |  | 3.49 µM (inactive) | 2.99 µM (inactive) | 1.6 µM (inactive) | 2.06 µM (inactive) | 8.34 µM (inactive) | 11.6 µM (inactive) | 2.71 µM (inactive) | 17.1 µM (inactive) | 14.4 µM (inactive) |  |  | 4.14 µM (inactive) | 15.6 µM | 2.47 µM (inactive) | 25.6 µM (inactive)

From ChEMBL document CHEMBL1201862, “PubChem BioAssay data set” (2004)
